Columns and labels:
[1] = tested on: Common Lambsquarter; experiment: Field preemergence test, weed control; format: in vivo; conditions: 3-4 weeks after planting
Text: (§1) Test plots of fertilized, light sandy soil containing 0.7% organic matter are sprayed uniformly with aqueous suspensions prepared from emulsifiable concentrates containing 12%, by weight, of the test chemicals diluted to provide dosage rates of the test compounds corresponding to 2.0, 1.0, 0.5, and 0.25 pound per acre (lb/A). The plots are then sown with seeds of the following crop plants: sweet corn, cotton (Coker 413) and soybeans, var. Davis. Seeds of the following weed plants are planted: redroot pigweed, prickly sida, common lambsquarter, goosegrass and giant foxtail.
(§2) Three to four weeks after planting, percent control (plant kill) of the test plants is estimated, from a rating of 0 which denotes no injury to the plant up to 100 which denotes complete destruction. The herbicidal action of the test compounds obtained on the weed species is as follows: […]

[2] = tested on: Giant Foxtail; experiment: Field preemergence test, weed control; format: in vivo; conditions: 3-4 weeks after planting
Text: as §1, §2

[3] = tested on: Goosegrass; experiment: Field preemergence test, weed control; format: in vivo; conditions: 3-4 weeks after planting
Text: as §1, §2

[4] = tested on: Prickly Sida; experiment: Field preemergence test, weed control; format: in vivo; conditions: 3-4 weeks after planting
Text: as §1, §2

[5] = tested on: Redroot Pigweed; experiment: Field preemergence test, weed control; format: in vivo; conditions: 3-4 weeks after planting
Text: as §1, §2

[6] = tested on: Corn; experiment: Field preemergence test, phytotoxic effects on crop; format: in vivo, sweet corn
Text: as §1
(§3) Three to four weeks after planting, percent control (plant kill) of the test plants is estimated, from a rating of 0 which denotes no injury to the plant up to 100 which denotes complete destruction. The herbicidal action of the test compounds obtained on the weed species is as follows:
(§4) Phytotoxic effects observed on the crop species is estimated with results as follows: […]

[7] = tested on: Cotton; experiment: as above; format: in vivo, cotton (Coker 413)
Text: as §1, §3, §4

[8] = tested on: Soybeans; experiment: as above; format: in vivo, var. Davis
Text: as §1, §3, §4

[9] = tested on: Morningglory; experiment: Example 17 selective herbicidal activity in corn crop, weed kill; format: in vivo, Ipomoea sp.; conditions: Ipomoea, 3-4 weeks after planting
Text: (§5) This example illustrates the selective herbicidal activity of two of the presently preferred compounds of this invention against various weed species in a corn crop.
(§6) Plots of light sandy soil, cleared of all weeds, are uniformly treated with aqueous dispersions prepared from an emulsifiable concentrate containing 2- 4 pounds of active ingredient per gallon. Diluted aqueous dispersions are applied as surface treatments at 2.0, 1.0, 0.5, and 0.25 pound of active ingredient per acre (lb/A).
(§7) The treated test plots are sown to corn and with seeds of the following weed species:
(§8) Three to four weeks after planting, the degree of damage to both the corn stands and the weed plants is assessed from a rating of 0% (no injury) to 100% (complete destruction).

[10] = tested on: Barnyardgrass; experiment: as above; format: in vivo, Echinochloa crusgalli; conditions: Echinochloa crus-galli, 3-4 weeks after planting
Text: as §5, §6, §7, §8

[11] = tested on: Yellow Foxtail; experiment: as above; format: in vivo, Setaria lutescens; conditions: Setaria, 3-4 weeks after planting
Text: as §5, §6, §7, §8

[12] = tested on: Goosegrass; experiment: as above; format: in vivo, Eleusine indica; conditions: 3-4 weeks after planting
Text: as §5, §6, §7, §8

[13] = tested on: Barnyardgrass; experiment: Example 18 preemergence herbicide test in different soils, % control; format: in vivo, barnyard-grass; conditions: three weeks
Method: (§9) To further illustrate the herbicidal activity of compounds of this invention in different types of soil as would be encountered in different crop growing localities, a preemergence herbicide test is conducted generally as outlined previously herein. Two light sandy soils are employed containing 0.7% and 1.8% organic matter (O.M.), respectively, along with two loam-type, heavier soils containing either 2.0% or 5-5.5% organic matter (O.M.).
(§10) The test plots are all sprayed uniformly with formulations of the test compounds providing 2.0, 1.0, 0.5, and 0.25 pound of active chemical per acre (lb/A).
(§11) Prior to treatment, the soil plots are sown to field corn, soybean, and grain sorghum crops and seeds of barnyard-grass and yellow foxtail.
(§12) Three weeks after planting, the percent control of plant growth is rated from 0% (no injury) to 100% (total destruction).

[14] = tested on: Yellow Foxtail; experiment: as above; format: in vivo; conditions: three weeks
Method: as §9, §10, §11, §12

[15] = tested on: Soybeans; experiment: Example 18 phytotoxic effects on crop stands in different soils; format: in vivo, soybean
Method: as §9, §10, §11
Three weeks after planting, the percent control of plant growth is rated from 0% (no injury) to 100% (total destruction). The results obtained are as follows:
Phytotoxic effects on the crop stands are similarly rated with the following results: […]

[16] = 0.5 lb/A, Heavy Soil 5-5.5% O.M.
[17] = 0.5 lb/A, Medium Soil 2.0% O.M.
[18] = 1.0 lb/A, Heavy Soil 5-5.5% O.M.
[19] = 1.0 lb/A, Medium Soil 2.0% O.M.
[20] = 2.0 lb/A, Heavy Soil 5-5.5% O.M.
[21] = 2.0 lb/A, Medium Soil 2.0% O.M.

Compound: C#CCN(C(=O)CCl)c1c(C)cccc1CC [Example 15, 2-Chloro-2'-methyl-6'-ethyl-N-propargylacetanilide]
- % Weed Control, Common Lambsquarter ([1]; 0.25 lb/A): 95%
- % Weed Control, Common Lambsquarter ([1]; 0.5 lb/A): 98%
- % Weed Control, Common Lambsquarter ([1]; 1.0 lb/A): 100%
- % Weed Control, Common Lambsquarter ([1]; 2.0 lb/A): 100%
- % Weed Control, Giant Foxtail ([2]; 0.25 lb/A): 47%
- % Weed Control, Giant Foxtail ([2]; 0.5 lb/A): 78%
- % Weed Control, Giant Foxtail ([2]; 1.0 lb/A): 97%
- % Weed Control, Giant Foxtail ([2]; 2.0 lb/A): 100%
- % Weed Control, Goosegrass ([3]; 0.25 lb/A): 87%
- % Weed Control, Goosegrass ([3]; 0.5 lb/A): 97%
- % Weed Control, Goosegrass ([3]; 1.0 lb/A): 100%
- % Weed Control, Goosegrass ([3]; 2.0 lb/A): 100%
- % Weed Control, Prickly Sida ([4]; 0.25 lb/A): 0%
- % Weed Control, Prickly Sida ([4]; 0.5 lb/A): 55%
- % Weed Control, Prickly Sida ([4]; 1.0 lb/A): 93%
- % Weed Control, Prickly Sida ([4]; 2.0 lb/A): 97%
- % Weed Control, Redroot Pigweed ([5]; 0.25 lb/A): 65%
- % Weed Control, Redroot Pigweed ([5]; 0.5 lb/A): 89%
- % Weed Control, Redroot Pigweed ([5]; 1.0 lb/A): 100%
- % Weed Control, Redroot Pigweed ([5]; 2.0 lb/A): 100%
- % Crop Kill, Corn ([6]; 0.5 lb/A): 0%
- % Crop Kill, Corn ([6]; 1.0 lb/A): 3%
- % Crop Kill, Corn ([6]; 2.0 lb/A): 12%
- % Crop Kill, Cotton ([7]; 0.5 lb/A): 0%
- % Crop Kill, Cotton ([7]; 1.0 lb/A): 6%
- % Crop Kill, Cotton ([7]; 2.0 lb/A): 13%
- % Crop Kill, Soybeans ([8]; 0.5 lb/A): 0%
- % Crop Kill, Soybeans ([8]; 1.0 lb/A): 3%
- % Crop Kill, Soybeans ([8]; 2.0 lb/A): 13%
- mortality at 280.212 g/ha ([9]; 0.25 lb/A): 0%
- mortality at 560.425 g/ha ([9]; 0.5 lb/A): 0%
- mortality at 1120.85 g/ha ([9]; 1.0 lb/A): 0%
- mortality at 2241.7 g/ha ([9]; 2.0 lb/A): 6%
- mortality at 280.212 g/ha ([10]; 0.25 lb/A): 88%
- mortality at 560.425 g/ha ([10]; 0.5 lb/A): 100%
- mortality at 1120.85 g/ha ([10]; 1.0 lb/A): 100%
- mortality at 2241.7 g/ha ([10]; 2.0 lb/A): 100%
- mortality at 280.212 g/ha ([11]; 0.25 lb/A): 82%
- mortality at 560.425 g/ha ([11]; 0.5 lb/A): 97%
- mortality at 1120.85 g/ha ([11]; 1.0 lb/A): 100%
- mortality at 2241.7 g/ha ([11]; 2.0 lb/A): 100%
- % Weed Kill, Goosegrass ([12]; 0.25 lb/A): 82%
- % Weed Kill, Goosegrass ([12]; 0.5 lb/A): 100%
- % Weed Kill, Goosegrass ([12]; 1.0 lb/A): 100%
- % Weed Kill, Goosegrass ([12]; 2.0 lb/A): 100%
- % Control, Barnyardgrass [13, 16]: 98%
- % Control, Barnyardgrass [13, 17]: 100%
- % Control, Barnyardgrass ([13]; 0.5 lb/A, Sand 0.7% O.M.): 75%
- % Control, Barnyardgrass ([13]; 0.5 lb/A, Sand 1.8% O.M.): 50%
- % Control, Barnyardgrass [13, 18]: 100%
- % Control, Barnyardgrass [13, 19]: 100%
- % Control, Barnyardgrass ([13]; 1.0 lb/A, Sand 0.7% O.M.): 99%
- % Control, Barnyardgrass ([13]; 1.0 lb/A, Sand 1.8% O.M.): 90%
- % Control, Barnyardgrass [13, 20]: 100%
- % Control, Barnyardgrass [13, 21]: 100%
- % Control, Barnyardgrass ([13]; 2.0 lb/A, Sand 0.7% O.M.): 99%
- % Control, Barnyardgrass ([13]; 2.0 lb/A, Sand 1.8% O.M.): 99%
- % Control, Yellow Foxtail [14, 16]: 98%
- % Control, Yellow Foxtail [14, 17]: 100%
- % Control, Yellow Foxtail ([14]; 0.5 lb/A, Sand 0.7% O.M.): 45%
- % Control, Yellow Foxtail ([14]; 0.5 lb/A, Sand 1.8% O.M.): 30%
- % Control, Yellow Foxtail [14, 18]: 100%
- % Control, Yellow Foxtail [14, 19]: 100%
- % Control, Yellow Foxtail ([14]; 1.0 lb/A, Sand 0.7% O.M.): 65%
- % Control, Yellow Foxtail ([14]; 1.0 lb/A, Sand 1.8% O.M.): 65%
- % Control, Yellow Foxtail [14, 20]: 100%
- % Control, Yellow Foxtail [14, 21]: 100%
- % Control, Yellow Foxtail ([14]; 2.0 lb/A, Sand 0.7% O.M.): 90%
- % Control, Yellow Foxtail ([14]; 2.0 lb/A, Sand 1.8% O.M.): 85%
- % Phytotoxicity, Soybeans [15, 16]: 0%
- % Phytotoxicity, Soybeans [15, 17]: 0%
- % Phytotoxicity, Soybeans ([15]; 0.5 lb/A, Sand 0.7% O.M.): 0%
- % Phytotoxicity, Soybeans ([15]; 0.5 lb/A, Sand 1.8% O.M.): 0%
- % Phytotoxicity, Soybeans [15, 18]: 0%
- % Phytotoxicity, Soybeans [15, 19]: 0%
- % Phytotoxicity, Soybeans ([15]; 1.0 lb/A, Sand 0.7% O.M.): 0%
- % Phytotoxicity, Soybeans ([15]; 1.0 lb/A, Sand 1.8% O.M.): 0%
- % Phytotoxicity, Soybeans [15, 20]: 0%
- % Phytotoxicity, Soybeans [15, 21]: 0%
- % Phytotoxicity, Soybeans ([15]; 2.0 lb/A, Sand 0.7% O.M.): 0%
- % Phytotoxicity, Soybeans ([15]; 2.0 lb/A, Sand 1.8% O.M.): 0%

Reference: US4001325A, “α-Chloroacetanilide selective herbicides” (Diamond Shamrock Corporation, priority 1973, dated 1977)
